Laboratory results published in PubChem BioAssay (NCI).
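All cell lines were grown in 96-well plates and treated with compound for 48 hours. Definition used: TGI = concentration required for complete inhibition of growth.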

Legend:
Assay in all cases: DTP human tumour cell line panel, 48 h
[1] = tested on: DU-145 prostate
[2] = tested on: HCT-116 colon
[3] = tested on: HCT-15 colon
[4] = tested on: LOX IMVI melanoma
[5] = tested on: MOLT-4 leukemia
[6] = tested on: NCI-H23 lung
[7] = tested on: NCI-H522 lung
[8] = tested on: SF-539 CNS
[9] = tested on: SN12C renal

Row | SMILES | TGI [1] [µM] | TGI [2] [µM] | TGI [3] [µM] | TGI [4] [µM] | TGI [5] [µM] | TGI [6] [µM] | TGI [7] [µM] | TGI [8] [µM] | TGI [9] [µM]
1 | C=CCCCN(C(=O)c1ccccc1)c1ccc(C(=O)OC)o1 | > 100 | > 100 | > 100 | > 100 | > 100 | > 100 | > 100 | > 100 | > 100
2 | COc1ccc(Cn2c(=O)c(OS(=O)(=O)C(F)(F)F)c(C)c3cc4ccccc4cc32)cc1 | > 100 | > 100 | > 100 | > 100 | > 100 | > 100 | > 100 | > 100 | > 100
3 | CC(=O)OC1C2CCC3CC2C2(SCCS2)C31 (stereo not drawn) | > 100 | > 100 | > 100 | > 100 | > 100 | > 100 | > 100 | > 100 | > 100
4 | Cc1ccc(N=Nc2c(O)ccc3ccccc23)c(C)c1 | > 100 | > 100 | > 100 | > 100 | > 100 | > 100 |  |  | > 100
5 | CC(C)(C)OC(=O)NCC(c1c[nH]c2ccccc12)c1c[nH]c2ccccc12 | 29 | 30.4 | 53.5 | 35.3 | 29.9 | 36.4 | 39.3 | 35.4 | 32.7
6 | C/C(CC(O)(C(F)(F)F)C(F)(F)F)=N\O | > 10 | > 10 | > 10 | > 10 | > 10 | > 10 | > 10 | > 10 | > 10
7 | COc1ccc(C2C3=C(COC3=O)Oc3cc4c(cc32)OCO4)cc1OC (stereo not drawn) | > 67.2 | > 86.1 | > 100 | > 100 | > 29.9 | > 100 | 2.19 | 2.31 | > 100
8 | CC(C)(C)N=C1C(=O)C2(C)CCC1C2(C)C (stereo not drawn) | > 100 | > 100 | > 100 | > 100 |  | > 100 |  | > 100 | 
9 | CC(=O)N1CCOC12N=NC(C)(C)O2 (stereo not drawn) | > 100 | > 100 | > 100 | > 100 | > 100 | > 100 | > 100 | > 100 | > 100
10 | CC1(C)Cc2ccccc2C(C)(Cl)C(=O)N1 (stereo not drawn) | > 10 | > 10 | > 10 |  | > 10 | > 10 |  | > 10 | > 10
11 | C/C(=N\Nc1nc2cc(F)ccc2s1)c1ccccn1 | > 100 | 13.2 | 2.12 |  | > 100 | 2.23 | 2.62 | > 23.4 | > 43.8
12 | Cc1cc(NS(=O)(=O)c2ccc(Nc3c4ccccc4nc4c(C(=O)NC(CO)(CO)CO)cccc34)cc2)no1 | > 100 |  | > 100 | 43.1 | 49 | > 100 | 34.4 |  | 78.6
